Measurements reported in ChEMBL document CHEMBL1944599, “From libraries to candidate: the discovery of new ultra long-acting dibasic β₂-adrenoceptor agonists” (Bioorg Med Chem Lett, 2012).
Active and inactive are the calls of the source. The rule behind the calls is not given here.

Tests used:
[1] = molecular target: T1, Beta-1 adrenergic receptor (Homo sapiens, UniProt P08588); experiment: Binding affinity to beta1 adrenoceptor
Hepatocyte = settings: rat, hepatocytes
Description: Drug metabolism in rat hepatocytes

[2] = molecular target: T2, Alpha-1D adrenergic receptor (Homo sapiens, UniProt P25100); experiment: Displacement of radiolabeled Prazosin from alpha1D adrenoceptor
T2 sequence (P25100 whole entry): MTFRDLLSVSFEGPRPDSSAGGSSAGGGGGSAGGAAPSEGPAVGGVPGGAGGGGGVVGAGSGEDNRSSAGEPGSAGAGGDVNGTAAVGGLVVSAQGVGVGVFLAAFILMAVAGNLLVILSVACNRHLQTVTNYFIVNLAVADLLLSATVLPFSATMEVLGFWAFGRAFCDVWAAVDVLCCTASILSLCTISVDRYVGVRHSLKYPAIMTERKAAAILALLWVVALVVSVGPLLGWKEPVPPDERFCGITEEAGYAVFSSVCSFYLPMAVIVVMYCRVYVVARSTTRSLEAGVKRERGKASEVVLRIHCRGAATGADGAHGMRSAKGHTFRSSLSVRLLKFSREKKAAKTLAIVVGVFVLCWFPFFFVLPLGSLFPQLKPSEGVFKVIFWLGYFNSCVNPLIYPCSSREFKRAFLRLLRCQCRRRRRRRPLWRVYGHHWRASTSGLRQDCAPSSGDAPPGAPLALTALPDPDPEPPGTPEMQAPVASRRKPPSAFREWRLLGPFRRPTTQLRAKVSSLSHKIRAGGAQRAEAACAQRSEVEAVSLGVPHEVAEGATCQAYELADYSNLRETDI

[3] = molecular target: T1, Beta-1 adrenergic receptor; experiment: Displacement of radiolabeled iodocyanopindolol from beta1 adrenoceptor
[4] = molecular target: T3, Beta-2 adrenergic receptor (Homo sapiens, UniProt P07550); experiment: Agonist activity at human beta2 adrenoceptor expressed in H292 cells assessed as increase in cAMP accumulation after 60 mins by spectrophotometry; format: functional, cell-based
T3 sequence (P07550 whole entry): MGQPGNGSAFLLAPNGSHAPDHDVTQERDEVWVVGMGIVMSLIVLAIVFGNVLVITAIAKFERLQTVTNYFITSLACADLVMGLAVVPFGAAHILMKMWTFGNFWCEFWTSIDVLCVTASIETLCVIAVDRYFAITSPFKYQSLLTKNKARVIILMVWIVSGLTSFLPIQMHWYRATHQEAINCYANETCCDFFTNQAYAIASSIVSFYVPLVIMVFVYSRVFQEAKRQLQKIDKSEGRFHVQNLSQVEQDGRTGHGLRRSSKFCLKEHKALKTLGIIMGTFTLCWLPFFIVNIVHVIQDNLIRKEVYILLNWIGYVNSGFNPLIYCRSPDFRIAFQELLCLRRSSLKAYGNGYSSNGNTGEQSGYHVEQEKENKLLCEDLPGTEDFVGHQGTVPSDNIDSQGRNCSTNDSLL

[5] = molecular target: T3, Beta-2 adrenergic receptor; experiment: Displacement of radiolabeled iodocyanopindolol from recombinant beta2 adrenoceptor
[6] = octanol/water, pH 7.4
D(2) dopamine receptor [7] = molecular target: T4, D(2) dopamine receptor (Homo sapiens, UniProt P14416); experiment: Displacement of radiolabeled spiperone from dopamine D2 receptor
T4 sequence (P14416 whole entry): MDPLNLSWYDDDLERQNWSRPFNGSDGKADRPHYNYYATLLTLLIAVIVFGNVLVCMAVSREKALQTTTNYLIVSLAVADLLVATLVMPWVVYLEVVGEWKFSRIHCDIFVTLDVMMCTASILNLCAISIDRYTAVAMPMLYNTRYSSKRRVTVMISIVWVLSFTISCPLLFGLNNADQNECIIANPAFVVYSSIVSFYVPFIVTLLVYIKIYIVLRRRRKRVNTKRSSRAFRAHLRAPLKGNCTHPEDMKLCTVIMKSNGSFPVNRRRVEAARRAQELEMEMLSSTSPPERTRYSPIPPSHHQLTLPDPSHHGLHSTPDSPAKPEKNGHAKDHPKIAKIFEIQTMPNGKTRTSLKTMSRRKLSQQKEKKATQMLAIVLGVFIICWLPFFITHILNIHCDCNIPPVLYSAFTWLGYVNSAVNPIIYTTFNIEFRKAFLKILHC

in vivo = settings: rat, iv
Description: Terminal half life in iv dosed rat

Cavia porcellus [8] = experiment: Bronchoprotective activity in it dosed guinea pig assessed as inhibition of histamine-induced constriction
[9] = Clearance in iv dosed rat; settings: in vivo
[10] = Apparent volume of distribution during terminal phase in iv dosed rat; format: ADME, organism-based; settings: in vivo, read-out: Vz
physchem = settings: 1-octanol/aqueous buffer, pH 7.4
[11] = molecular target: Beta-2 adrenergic receptor (Cavia porcellus) (UniProt Q8K4Z4); experiment: Agonist activity at beta2 adrenoceptor in guinea pig trachea assessed as reduction in methacholine-induced contraction relative to untreated control; format: functional, tissue-based
Chain of Beta-2 adrenergic receptor (Cavia porcellus) (Q8K4Z4 whole entry, looked up): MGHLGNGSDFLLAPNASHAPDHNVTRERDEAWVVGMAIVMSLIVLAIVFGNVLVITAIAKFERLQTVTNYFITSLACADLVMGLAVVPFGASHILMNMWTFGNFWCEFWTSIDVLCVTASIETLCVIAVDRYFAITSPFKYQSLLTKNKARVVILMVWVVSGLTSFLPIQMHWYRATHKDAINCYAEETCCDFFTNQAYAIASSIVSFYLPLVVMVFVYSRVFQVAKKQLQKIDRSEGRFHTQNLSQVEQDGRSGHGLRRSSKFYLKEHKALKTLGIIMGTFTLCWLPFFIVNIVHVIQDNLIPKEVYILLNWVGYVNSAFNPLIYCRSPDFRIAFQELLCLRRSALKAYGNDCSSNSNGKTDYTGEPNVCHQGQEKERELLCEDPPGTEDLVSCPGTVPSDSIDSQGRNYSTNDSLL

[12] = molecular target: Beta-2 adrenergic receptor (Cavia porcellus, UniProt Q8K4Z4); experiment: Agonist activity at beta2 adrenoceptor in guinea pig trachea assessed as reduction in methacholine-induced contraction; format: functional, tissue-based
Chain of Beta-2 adrenergic receptor (Cavia porcellus, UniProt Q8K4Z4) (Q8K4Z4 whole entry): as the sequence (Q8K4Z4 whole entry, looked up) above

Cavia porcellus [13] = experiment: Bronchoprotective activity in histamine-induced bronchoconstriction guinea pig model at 7 ug/kg, it after 24 hrs; format: functional
[14] = Oral bioavailability in rat; format: ADME, organism-based; settings: in vivo
[15] = Half life in it dosed dog; format: ADME, organism-based, Canis lupus familiaris; settings: in vivo, inhaled or intranasal
D(2) dopamine receptor [16] = molecular target: T4, D(2) dopamine receptor; experiment: […] to dopamine D2 receptor expressed in HEK cells by GTPgammaS binding assay; format: cell-based, HEK293
[17] = molecular target: T2, Alpha-1D adrenergic receptor; experiment: […] to Alpha-1D adrenoceptor expressed in HEK cells by calcium flux assay; format: cell-based, HEK293
[18] = Oral bioavailability in dog; format: ADME, organism-based, Canis lupus familiaris; settings: in vivo
[19] = molecular target: T5, Voltage-gated inwardly rectifying potassium channel KCNH2 (Homo sapiens, UniProt Q12809); experiment: Inhibition of human ERG by patch clamp assay
T5 sequence (Q12809 whole entry): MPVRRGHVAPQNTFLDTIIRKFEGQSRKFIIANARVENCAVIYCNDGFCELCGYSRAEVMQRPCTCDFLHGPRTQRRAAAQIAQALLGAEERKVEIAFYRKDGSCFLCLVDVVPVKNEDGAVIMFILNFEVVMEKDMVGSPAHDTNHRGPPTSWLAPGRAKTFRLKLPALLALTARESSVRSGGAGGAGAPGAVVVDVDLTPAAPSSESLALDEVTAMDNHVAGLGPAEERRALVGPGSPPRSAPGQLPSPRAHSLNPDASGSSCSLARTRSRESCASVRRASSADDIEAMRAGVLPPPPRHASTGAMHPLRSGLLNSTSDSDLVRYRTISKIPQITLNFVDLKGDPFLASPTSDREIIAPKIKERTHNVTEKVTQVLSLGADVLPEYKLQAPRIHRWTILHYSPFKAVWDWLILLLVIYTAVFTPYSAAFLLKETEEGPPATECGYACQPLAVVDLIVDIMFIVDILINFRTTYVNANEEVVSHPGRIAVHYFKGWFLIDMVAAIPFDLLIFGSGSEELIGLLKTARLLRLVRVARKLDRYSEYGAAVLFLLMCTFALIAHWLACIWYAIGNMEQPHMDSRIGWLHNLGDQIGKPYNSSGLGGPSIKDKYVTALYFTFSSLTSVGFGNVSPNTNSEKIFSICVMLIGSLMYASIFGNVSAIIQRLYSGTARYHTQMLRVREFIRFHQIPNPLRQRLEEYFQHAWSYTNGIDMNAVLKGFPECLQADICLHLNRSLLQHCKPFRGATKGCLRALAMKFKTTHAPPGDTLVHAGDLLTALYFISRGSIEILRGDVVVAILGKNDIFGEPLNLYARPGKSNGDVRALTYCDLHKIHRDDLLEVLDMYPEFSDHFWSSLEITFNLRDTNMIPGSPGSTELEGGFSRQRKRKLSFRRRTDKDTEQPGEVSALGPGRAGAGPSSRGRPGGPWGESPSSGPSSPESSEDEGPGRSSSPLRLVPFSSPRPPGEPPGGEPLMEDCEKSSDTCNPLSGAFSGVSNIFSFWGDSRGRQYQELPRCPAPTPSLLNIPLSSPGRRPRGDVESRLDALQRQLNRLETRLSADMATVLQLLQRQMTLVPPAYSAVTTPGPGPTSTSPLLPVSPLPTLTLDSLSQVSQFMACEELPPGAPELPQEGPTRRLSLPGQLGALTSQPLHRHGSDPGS

[20] = Inhibition of cytochrome P450; format: ADME
Cytochrome P450 2D6 = Cytochrome P450 2D6 (Homo sapiens, UniProt P10635); experiment: Inhibition of CYP2D6; format: ADME
Chain of Cytochrome P450 2D6 (P10635 whole entry): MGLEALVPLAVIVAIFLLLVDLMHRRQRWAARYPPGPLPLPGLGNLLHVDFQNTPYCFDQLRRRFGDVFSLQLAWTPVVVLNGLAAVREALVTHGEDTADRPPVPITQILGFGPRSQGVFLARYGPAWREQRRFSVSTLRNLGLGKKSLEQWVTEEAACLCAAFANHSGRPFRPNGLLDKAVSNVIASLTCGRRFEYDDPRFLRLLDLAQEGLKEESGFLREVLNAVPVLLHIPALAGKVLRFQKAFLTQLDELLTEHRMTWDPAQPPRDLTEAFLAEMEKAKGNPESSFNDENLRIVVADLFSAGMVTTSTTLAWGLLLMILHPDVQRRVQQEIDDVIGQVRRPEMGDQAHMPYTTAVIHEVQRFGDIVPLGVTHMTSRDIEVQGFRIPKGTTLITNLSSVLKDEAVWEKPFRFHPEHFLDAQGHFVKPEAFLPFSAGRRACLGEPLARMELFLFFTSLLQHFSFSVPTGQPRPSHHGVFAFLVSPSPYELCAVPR

[21] = molecular target: T5, Voltage-gated inwardly rectifying potassium channel KCNH2; experiment: Inhibition of human ERG
Cytochrome P450 3A4 = Cytochrome P450 3A4 (Homo sapiens, UniProt P08684); experiment: Inhibition of CYP3A4; format: ADME
Chain of Cytochrome P450 3A4 (P08684 whole entry): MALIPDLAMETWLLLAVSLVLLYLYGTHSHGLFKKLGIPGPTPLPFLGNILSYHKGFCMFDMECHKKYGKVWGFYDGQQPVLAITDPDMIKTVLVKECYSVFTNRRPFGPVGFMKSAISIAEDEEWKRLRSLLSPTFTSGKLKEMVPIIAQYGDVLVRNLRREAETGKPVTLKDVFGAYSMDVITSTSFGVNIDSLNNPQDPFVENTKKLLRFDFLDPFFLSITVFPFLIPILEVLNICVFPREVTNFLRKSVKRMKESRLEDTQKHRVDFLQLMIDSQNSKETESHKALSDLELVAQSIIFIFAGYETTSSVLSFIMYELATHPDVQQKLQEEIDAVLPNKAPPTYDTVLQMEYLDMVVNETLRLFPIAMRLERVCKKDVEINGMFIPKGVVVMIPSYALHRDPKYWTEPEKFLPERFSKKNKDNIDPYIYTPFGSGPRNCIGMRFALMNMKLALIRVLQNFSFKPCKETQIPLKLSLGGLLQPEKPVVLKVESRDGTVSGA

D(2) dopamine receptor [22] = molecular target: T4, D(2) dopamine receptor; experiment: […] to dopamine D2 receptor expressed in HEK cells by GTPgammaS binding assay relative to control; format: cell-based; settings: HEK293
[23] = molecular target: T6, Alpha-1D adrenergic receptor (Homo sapiens) (UniProt P25100); experiment: […] to Alpha-1D adrenoceptor expressed in HEK cells by calcium flux assay relative to control; format: cell-based; settings: HEK293
T6 sequence (whole entry): T2 sequence (P25100 whole entry)

Cavia porcellus [24] = experiment: Bronchoprotective activity in histamine-induced bronchoconstriction guinea pig model at 7 ug/kg, it co-administered with beta2 adrenoceptor antagonist propranolol; format: functional, organism-based

T1 sequence (P08588 whole entry): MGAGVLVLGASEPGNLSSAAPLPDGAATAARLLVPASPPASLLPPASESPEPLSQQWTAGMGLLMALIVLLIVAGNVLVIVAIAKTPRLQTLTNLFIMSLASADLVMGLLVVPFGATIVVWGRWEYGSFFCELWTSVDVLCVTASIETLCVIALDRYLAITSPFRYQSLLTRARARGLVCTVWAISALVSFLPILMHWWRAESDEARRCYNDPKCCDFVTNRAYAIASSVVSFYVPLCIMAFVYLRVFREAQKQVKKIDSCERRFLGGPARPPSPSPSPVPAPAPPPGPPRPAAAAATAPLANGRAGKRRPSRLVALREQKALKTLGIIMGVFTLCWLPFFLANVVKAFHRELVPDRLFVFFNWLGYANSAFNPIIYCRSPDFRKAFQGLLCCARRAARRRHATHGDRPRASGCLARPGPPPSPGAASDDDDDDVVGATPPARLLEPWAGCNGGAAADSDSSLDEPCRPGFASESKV

Compound	IC50 [2] [nM]	IC50 [3] [nM]	IC50 [5] [nM]	IC50 (D(2) dopamine receptor [7]) [nM]	half-life (in vivo) [h]	clearance [9] [mL/min/kg]	Vd [10] [L/kg]	logD (physchem)	Intrinsic activity [11]	EC50 [12] [nM]	also measured
O=c1[nH]c2c(O)ccc(CCNCCS(=O)(=O)CCCOCCc3ccccc3)c2s1 [SIBENADET]	–	–	–	–	–	–	–	–	–	–	IC50 [1]: > 10000 nM; Drug metabolism (Hepatocyte): > 117%
O=c1[nH]c2c(O)ccc([C@@H](O)CNCCc3cccc(CN4CCCC4)c3)c2s1	1000	316	3.98	3160	–	–	–	–	–	–	EC50 [4]: 0.631 nM; logD [6]: 0.8
CCc1cc2c(cc1CC)CC(NC[C@H](O)c1ccc(O)c3[nH]c(=O)ccc13)C2 [INDACATEROL]	–	–	–	–	7.6	–	–	–	–	–	IC50 [1]: […]; Drug metabolism (Hepatocyte): 51%; ED80 (Cavia porcellus [8]): 14 µg/kg
OCc1cc(C(O)CNCCCCCCOCCCCc2ccccc2)ccc1O (centres undefined) [SALMETEROL]	–	–	–	–	–	–	–	–	–	–	Drug metabolism (Hepatocyte): 85%; ED80 (Cavia porcellus [8]): 1 µg/kg
COc1ccccc1CNCc1cccc(CCNC[C@H](O)c2ccc(O)c3[nH]c(=O)sc23)c1 [listing 1 of 2 here]	200	50.1	–	1000	14	20	22	1.1	–	0.501	Activity (Cavia porcellus [13]): 64%; bioavailability [14]: < 2%; half-life [15]: 48 h; EC50 (D(2) dopamine receptor [16]): 251 nM; EC50 [17]: 126 nM; bioavailability [18]: < 2%; Activity [19]: > 10 µM; Activity [20]: > 10 µM
O=c1[nH]c2c(O)ccc([C@@H](O)CNCCc3cccc(CNCCc4c(Cl)cccc4Cl)c3)c2s1	63.1	12.6	–	251	–	–	–	3.2	–	–	inhibition (INH) (Cytochrome P450 2D6): Active; inhibition (INH) [21]: Active; inhibition (INH) (Cytochrome P450 3A4): Active
O=c1[nH]c2c(O)ccc([C@@H](O)CNCCc3ccc(CNCCc4c(Cl)cccc4Cl)cc3)c2s1	79.4	398	3.98	1000	–	–	–	2.3	–	–	inhibition (INH) (Cytochrome P450 2D6): Active; inhibition (INH) [21]: Active; EC50 [4]: 0.316 nM; inhibition (INH) (Cytochrome P450 3A4): Active
COc1ccccc1CNCc1cccc(CCNC[C@H](O)c2ccc(O)c3[nH]c(=O)sc23)c1 [listing 2 of 2 here]	–	–	–	–	–	–	–	–	0.9	–	Intrinsic activity (D(2) dopamine receptor [22]): 0.4; Intrinsic activity [23]: 0.3; Activity (Cavia porcellus [24]): inactive
COc1ccccc1CNCc1cccc(CCNC[C@H](O)c2ccc(O)c3[nH]c(=O)sc23)c1.Cl	–	–	–	–	–	–	–	–	–	–	ED80 (Cavia porcellus [8]): 7 µg/kg

The next lines start with results.

IC50 [2] [nM]	IC50 [3] [nM]	IC50 [5] [nM]	IC50 (D(2) dopamine receptor [7]) [nM]	half-life (in vivo) [h]	clearance [9] [mL/min/kg]	Vd [10] [L/kg]	logD (physchem)	Intrinsic activity [11]	EC50 [12] [nM]	Compound	also measured
501	158	25.1	794	18	18	28	0	0.8	3.16	COCCNCc1cccc(CCNC[C@H](O)c2ccc(O)c3[nH]c(=O)sc23)c1	–
126	63.1	0.501	398	16	6	8.2	1.1	0.9	0.251	O=c1[nH]c2c(O)ccc([C@@H](O)CNCCc3cccc(CNCCc4ccccc4F)c3)c2s1	EC50 [4]: 0.158 nM
–	–	0.794	–	15	19	22	-0.3	0.9	0.251	C[C@@H](NCc1ccccc1-c1ccc(CCNCCc2ccc(O)c3[nH]c(=O)sc23)cc1)c1ccccc1	–
